In US12281080B2, “Quinoline-based compounds and methods of inhibiting CDK8/19” (University of South Carolina, priority 2018, dated 2025):

Assays:
[1] = target: IKK-epsilon (IKBKE) (Homo sapiens (Human), UniProt Q14164); assay: KINOMEscan scanMAX; type: binding; conditions: 2000 nM; read-out: Percent Control
[2] = target: HIPK2 (Homo sapiens (Human), UniProt Q9H2X6); assay: KINOMEscan scanMAX; type: binding; conditions: 2000 nM; read-out: Percent Control
[3] = target: TRKB (NTRK2) (Homo sapiens (Human), UniProt Q16620); assay: KINOMEscan scanMAX; type: binding; conditions: 2000 nM; read-out: Percent Control
[4] = target: CDK11 (CDK19) (Homo sapiens (Human), UniProt Q9BWU1); assay: KINOMEscan scanMAX; type: binding; conditions: 2000 nM; read-out: Percent Control
CDK11 (CDK19), sequence (Q9BWU1 whole entry): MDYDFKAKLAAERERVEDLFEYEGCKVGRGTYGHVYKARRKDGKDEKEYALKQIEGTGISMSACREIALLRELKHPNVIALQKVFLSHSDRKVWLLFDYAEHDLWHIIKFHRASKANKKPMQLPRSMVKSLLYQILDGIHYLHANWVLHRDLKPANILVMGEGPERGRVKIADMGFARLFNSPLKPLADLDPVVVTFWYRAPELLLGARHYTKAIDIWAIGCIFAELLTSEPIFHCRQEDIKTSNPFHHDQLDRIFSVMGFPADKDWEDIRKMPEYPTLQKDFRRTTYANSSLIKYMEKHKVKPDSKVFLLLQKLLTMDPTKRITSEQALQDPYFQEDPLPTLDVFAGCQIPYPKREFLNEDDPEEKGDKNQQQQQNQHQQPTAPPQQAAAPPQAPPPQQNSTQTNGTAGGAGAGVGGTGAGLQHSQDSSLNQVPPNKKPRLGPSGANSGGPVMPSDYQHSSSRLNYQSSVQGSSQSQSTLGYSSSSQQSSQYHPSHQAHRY

[5] = target: KIT (Homo sapiens (Human), UniProt P10721); assay: KINOMEscan scanMAX; type: binding; conditions: 2000 nM; read-out: Percent Control
[6] = target: PLK3 (Homo sapiens (Human), UniProt Q9H4B4); assay: KINOMEscan scanMAX; type: binding; conditions: 2000 nM; read-out: Percent Control
[7] = target: DCAMKL1 (DCLK1) (Homo sapiens (Human), UniProt O15075); assay: KINOMEscan scanMAX; type: binding; conditions: 2000 nM; read-out: Percent Control
DCAMKL1 (DCLK1), sequence (O15075 whole entry, looked up): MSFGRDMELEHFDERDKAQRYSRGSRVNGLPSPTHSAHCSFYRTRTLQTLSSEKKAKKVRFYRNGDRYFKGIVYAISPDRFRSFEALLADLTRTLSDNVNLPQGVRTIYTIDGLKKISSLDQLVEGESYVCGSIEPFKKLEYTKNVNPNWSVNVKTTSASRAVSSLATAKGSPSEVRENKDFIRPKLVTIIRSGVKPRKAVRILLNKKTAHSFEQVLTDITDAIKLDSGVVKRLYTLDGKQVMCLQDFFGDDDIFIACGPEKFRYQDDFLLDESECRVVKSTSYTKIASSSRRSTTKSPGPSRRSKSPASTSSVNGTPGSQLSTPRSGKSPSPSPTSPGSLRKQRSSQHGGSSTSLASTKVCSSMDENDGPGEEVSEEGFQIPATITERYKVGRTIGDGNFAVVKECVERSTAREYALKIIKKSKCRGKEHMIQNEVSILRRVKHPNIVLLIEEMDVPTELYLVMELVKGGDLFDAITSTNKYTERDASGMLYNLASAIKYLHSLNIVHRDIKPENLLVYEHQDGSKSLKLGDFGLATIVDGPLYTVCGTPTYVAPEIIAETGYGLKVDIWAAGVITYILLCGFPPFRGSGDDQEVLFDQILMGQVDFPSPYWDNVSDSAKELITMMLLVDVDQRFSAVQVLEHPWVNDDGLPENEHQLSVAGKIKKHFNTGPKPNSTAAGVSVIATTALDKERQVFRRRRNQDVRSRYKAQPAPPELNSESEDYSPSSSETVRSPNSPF

[8] = target: HUNK (Homo sapiens (Human), UniProt P57058); assay: KINOMEscan scanMAX; type: binding; conditions: 2000 nM; read-out: Percent Control
HUNK, sequence (P57058 whole entry): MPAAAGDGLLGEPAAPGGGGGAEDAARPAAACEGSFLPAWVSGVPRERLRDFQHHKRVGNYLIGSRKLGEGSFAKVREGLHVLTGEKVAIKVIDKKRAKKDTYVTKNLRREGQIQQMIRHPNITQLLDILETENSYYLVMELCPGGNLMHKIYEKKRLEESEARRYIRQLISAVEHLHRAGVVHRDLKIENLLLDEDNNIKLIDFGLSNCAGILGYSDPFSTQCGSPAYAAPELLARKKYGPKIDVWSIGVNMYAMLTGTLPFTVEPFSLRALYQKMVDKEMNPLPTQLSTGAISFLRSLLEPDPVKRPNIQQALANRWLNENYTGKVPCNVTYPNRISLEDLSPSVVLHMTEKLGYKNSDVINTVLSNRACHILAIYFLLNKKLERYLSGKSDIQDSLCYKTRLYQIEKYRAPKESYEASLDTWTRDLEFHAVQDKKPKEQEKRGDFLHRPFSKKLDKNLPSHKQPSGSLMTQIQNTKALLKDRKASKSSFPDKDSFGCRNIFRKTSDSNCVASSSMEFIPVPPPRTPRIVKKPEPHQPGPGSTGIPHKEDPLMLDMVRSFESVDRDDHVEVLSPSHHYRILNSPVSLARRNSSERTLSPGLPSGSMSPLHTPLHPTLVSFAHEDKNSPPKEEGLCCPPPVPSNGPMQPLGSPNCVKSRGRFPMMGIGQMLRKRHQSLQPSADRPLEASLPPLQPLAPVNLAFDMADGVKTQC

[9] = target: ABL1(H396P)-phosphorylated (Homo sapiens (Human), UniProt P00519, H396P); assay: KINOMEscan scanMAX; type: binding; conditions: 2000 nM; read-out: Percent Control
[10] = target: PIP5K2C (PIP4K2C) (Homo sapiens (Human), UniProt Q8TBX8); assay: KINOMEscan scanMAX; type: binding; conditions: 2000 nM; read-out: Percent Control
[11] = target: FLT1 (Homo sapiens (Human), UniProt P17948); assay: KINOMEscan scanMAX; type: binding; conditions: 2000 nM; read-out: Percent Control
[12] = target: TNIK (Homo sapiens (Human), UniProt Q9UKE5); assay: KINOMEscan scanMAX; type: binding; conditions: 2000 nM; read-out: Percent Control
[13] = target: FGFR2 (Homo sapiens (Human), UniProt P21802); assay: KINOMEscan scanMAX; type: binding; conditions: 2000 nM; read-out: Percent Control
[14] = target: ADCK4 (Homo sapiens (Human), UniProt Q96D53); assay: KINOMEscan scanMAX; type: binding; conditions: 2000 nM; read-out: Percent Control
[15] = target: PRKCE (Homo sapiens (Human), UniProt Q02156); assay: KINOMEscan scanMAX; type: binding; conditions: 2000 nM; read-out: Percent Control
[16] = target: SIK (SIK1) (Homo sapiens (Human), UniProt P57059); assay: KINOMEscan scanMAX; type: binding; conditions: 2000 nM; read-out: Percent Control
SIK (SIK1), sequence (P57059 whole entry): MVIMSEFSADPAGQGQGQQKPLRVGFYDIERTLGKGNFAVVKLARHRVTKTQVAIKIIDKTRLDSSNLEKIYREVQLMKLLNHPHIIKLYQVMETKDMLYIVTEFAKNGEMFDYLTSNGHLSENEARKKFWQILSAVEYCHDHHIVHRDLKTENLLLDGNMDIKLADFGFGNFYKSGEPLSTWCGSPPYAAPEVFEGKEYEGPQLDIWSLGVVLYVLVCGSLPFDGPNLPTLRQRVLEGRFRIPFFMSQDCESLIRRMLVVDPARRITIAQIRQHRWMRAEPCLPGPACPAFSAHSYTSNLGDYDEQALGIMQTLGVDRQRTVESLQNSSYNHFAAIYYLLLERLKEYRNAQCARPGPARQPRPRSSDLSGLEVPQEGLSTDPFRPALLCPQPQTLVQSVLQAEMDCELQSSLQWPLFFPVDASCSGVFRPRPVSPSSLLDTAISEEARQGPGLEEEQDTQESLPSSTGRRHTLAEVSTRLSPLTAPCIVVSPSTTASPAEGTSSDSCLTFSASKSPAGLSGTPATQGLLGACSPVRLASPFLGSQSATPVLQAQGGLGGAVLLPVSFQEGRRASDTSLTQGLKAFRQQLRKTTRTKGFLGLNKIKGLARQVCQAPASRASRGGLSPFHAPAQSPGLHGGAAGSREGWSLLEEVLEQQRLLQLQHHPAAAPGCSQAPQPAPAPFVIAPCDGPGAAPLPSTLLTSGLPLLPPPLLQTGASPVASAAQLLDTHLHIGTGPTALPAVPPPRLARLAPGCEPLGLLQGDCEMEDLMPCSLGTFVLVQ

[17] = target: SRC (Homo sapiens (Human), UniProt P12931); assay: KINOMEscan scanMAX; type: binding; conditions: 2000 nM; read-out: Percent Control
SRC, sequence (P12931 whole entry, looked up): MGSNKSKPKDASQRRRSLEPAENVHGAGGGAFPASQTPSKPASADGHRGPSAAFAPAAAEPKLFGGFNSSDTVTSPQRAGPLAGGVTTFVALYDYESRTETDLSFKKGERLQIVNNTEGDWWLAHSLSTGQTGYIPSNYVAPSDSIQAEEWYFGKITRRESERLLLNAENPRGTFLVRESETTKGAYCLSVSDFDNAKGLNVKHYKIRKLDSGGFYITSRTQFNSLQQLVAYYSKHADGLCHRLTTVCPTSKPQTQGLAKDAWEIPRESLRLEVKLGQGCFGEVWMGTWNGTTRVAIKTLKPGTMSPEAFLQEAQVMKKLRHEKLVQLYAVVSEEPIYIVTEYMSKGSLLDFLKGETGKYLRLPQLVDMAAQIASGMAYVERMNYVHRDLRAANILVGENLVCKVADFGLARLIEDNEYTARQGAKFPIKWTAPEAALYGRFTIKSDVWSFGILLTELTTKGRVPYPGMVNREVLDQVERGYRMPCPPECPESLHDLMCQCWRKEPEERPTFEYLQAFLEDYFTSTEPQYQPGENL

[18] = target: ERK2 (MAPK1) (Homo sapiens (Human), UniProt P28482); assay: KINOMEscan scanMAX; type: binding; conditions: 2000 nM; read-out: Percent Control
[19] = target: TGFBR2 (Homo sapiens (Human), UniProt P37173); assay: KINOMEscan scanMAX; type: binding; conditions: 2000 nM; read-out: Percent Control
TGFBR2, sequence (P37173 23-567): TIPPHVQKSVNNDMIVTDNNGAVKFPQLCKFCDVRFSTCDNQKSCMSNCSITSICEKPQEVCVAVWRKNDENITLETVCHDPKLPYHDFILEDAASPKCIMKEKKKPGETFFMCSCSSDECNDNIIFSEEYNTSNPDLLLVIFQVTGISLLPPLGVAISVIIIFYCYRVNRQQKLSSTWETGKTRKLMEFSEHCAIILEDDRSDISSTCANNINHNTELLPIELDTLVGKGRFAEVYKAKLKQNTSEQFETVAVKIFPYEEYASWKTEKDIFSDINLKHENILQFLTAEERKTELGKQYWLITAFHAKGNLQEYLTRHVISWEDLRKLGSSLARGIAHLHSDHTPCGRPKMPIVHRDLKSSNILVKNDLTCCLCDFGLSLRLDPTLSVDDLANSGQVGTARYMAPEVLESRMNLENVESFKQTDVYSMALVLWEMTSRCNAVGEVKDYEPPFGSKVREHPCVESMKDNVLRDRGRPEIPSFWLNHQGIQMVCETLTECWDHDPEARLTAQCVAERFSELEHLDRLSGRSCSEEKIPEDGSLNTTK

[20] = target: NEK4 (Homo sapiens (Human), UniProt P51957); assay: KINOMEscan scanMAX; type: binding; conditions: 2000 nM; read-out: Percent Control
[21] = target: CDK8 (Homo sapiens (Human), UniProt P49336); assay: KINOMEscan scanMAX; type: binding; conditions: 2000 nM; read-out: Percent Control
[22] = test system: LNCaP-C4-2 cells; assay: PSA production (ELISA) in LNCaP-C4-2 cells; type: cell-based, human; conditions: 4 days treatment, conditioned media
Experimental: Prostate cancer LNCaP-C4-2 cells were treated with different concentrations of the compounds for 4 days and the conditioned media were collected for quantification of prostate specific antigen (PSA) with an ELISA kit.

[23] = target: SNARK (NUAK2) (Homo sapiens (Human), UniProt Q9H093); assay: KINOMEscan scanMAX; type: binding; conditions: 2000 nM; read-out: Percent Control
[24] = target: RPS6KA5(Kin.Dom.1-N-terminal) (Homo sapiens (Human), UniProt O75582); assay: KINOMEscan scanMAX; type: binding; conditions: 2000 nM; read-out: Percent Control
[25] = target: AURKA (Homo sapiens (Human), UniProt O14965); assay: KINOMEscan scanMAX; type: binding; conditions: 2000 nM; read-out: Percent Control
[26] = target: PKNB(M.tuberculosis) (pknB) (Mycobacterium tuberculosis (strain ATCC 25618 / H37Rv), UniProt P9WI81); assay: KINOMEscan scanMAX; type: binding; conditions: 2000 nM; read-out: Percent Control
[27] = target: TAOK3 (Homo sapiens (Human), UniProt Q9H2K8); assay: KINOMEscan scanMAX; type: binding; conditions: 2000 nM; read-out: Percent Control
[28] = target: RIPK4 (Homo sapiens (Human), UniProt P57078); assay: KINOMEscan scanMAX; type: binding; conditions: 2000 nM; read-out: Percent Control
[29] = target: YES (YES1) (Homo sapiens (Human), UniProt P07947); assay: KINOMEscan scanMAX; type: binding; conditions: 2000 nM; read-out: Percent Control
[30] = target: MEK3 (MAP2K3) (Homo sapiens (Human), UniProt P46734); assay: KINOMEscan scanMAX; type: binding; conditions: 2000 nM; read-out: Percent Control
[31] = target: FLT3 (Homo sapiens (Human), UniProt P36888); assay: KINOMEscan scanMAX; type: binding; conditions: 2000 nM; read-out: Percent Control
[32] = target: RSK4(Kin.Dom.1-N-terminal) (RPS6KA6) (Homo sapiens (Human), UniProt Q9UK32); assay: KINOMEscan scanMAX; type: binding; conditions: 2000 nM; read-out: Percent Control
[33] = target: PHKG2 (Homo sapiens (Human), UniProt P15735); assay: KINOMEscan scanMAX; type: binding; conditions: 2000 nM; read-out: Percent Control
[34] = target: VPS34 (PIK3C3) (Homo sapiens (Human), UniProt Q8NEB9); assay: KINOMEscan scanMAX; type: binding; conditions: 2000 nM; read-out: Percent Control
[35] = target: CSNK1D (Homo sapiens (Human), UniProt P48730); assay: KINOMEscan scanMAX; type: binding; conditions: 2000 nM; read-out: Percent Control
CSNK1D, sequence (P48730 whole entry): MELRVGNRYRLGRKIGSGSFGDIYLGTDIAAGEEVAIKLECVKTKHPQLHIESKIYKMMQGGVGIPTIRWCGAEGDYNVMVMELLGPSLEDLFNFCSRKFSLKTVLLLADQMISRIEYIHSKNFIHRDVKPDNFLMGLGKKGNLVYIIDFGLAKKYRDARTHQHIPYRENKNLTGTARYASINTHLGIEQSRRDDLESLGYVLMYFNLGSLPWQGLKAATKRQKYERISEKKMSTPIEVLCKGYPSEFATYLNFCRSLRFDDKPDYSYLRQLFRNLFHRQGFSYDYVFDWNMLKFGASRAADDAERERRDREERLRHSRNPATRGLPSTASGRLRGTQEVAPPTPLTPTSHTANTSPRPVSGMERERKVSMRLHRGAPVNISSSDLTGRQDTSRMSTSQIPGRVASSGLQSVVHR

[36] = target: VEGFR2 (KDR) (Homo sapiens (Human), UniProt P35968); assay: KINOMEscan scanMAX; type: binding; conditions: 2000 nM; read-out: Percent Control
[37] = target: DYRK2 (Homo sapiens (Human), UniProt Q92630); assay: KINOMEscan scanMAX; type: binding; conditions: 2000 nM; read-out: Percent Control
[38] = target: TIE1 (Homo sapiens (Human), UniProt P35590); assay: KINOMEscan scanMAX; type: binding; conditions: 2000 nM; read-out: Percent Control

IKK-epsilon (IKBKE), sequence (Q14164 whole entry): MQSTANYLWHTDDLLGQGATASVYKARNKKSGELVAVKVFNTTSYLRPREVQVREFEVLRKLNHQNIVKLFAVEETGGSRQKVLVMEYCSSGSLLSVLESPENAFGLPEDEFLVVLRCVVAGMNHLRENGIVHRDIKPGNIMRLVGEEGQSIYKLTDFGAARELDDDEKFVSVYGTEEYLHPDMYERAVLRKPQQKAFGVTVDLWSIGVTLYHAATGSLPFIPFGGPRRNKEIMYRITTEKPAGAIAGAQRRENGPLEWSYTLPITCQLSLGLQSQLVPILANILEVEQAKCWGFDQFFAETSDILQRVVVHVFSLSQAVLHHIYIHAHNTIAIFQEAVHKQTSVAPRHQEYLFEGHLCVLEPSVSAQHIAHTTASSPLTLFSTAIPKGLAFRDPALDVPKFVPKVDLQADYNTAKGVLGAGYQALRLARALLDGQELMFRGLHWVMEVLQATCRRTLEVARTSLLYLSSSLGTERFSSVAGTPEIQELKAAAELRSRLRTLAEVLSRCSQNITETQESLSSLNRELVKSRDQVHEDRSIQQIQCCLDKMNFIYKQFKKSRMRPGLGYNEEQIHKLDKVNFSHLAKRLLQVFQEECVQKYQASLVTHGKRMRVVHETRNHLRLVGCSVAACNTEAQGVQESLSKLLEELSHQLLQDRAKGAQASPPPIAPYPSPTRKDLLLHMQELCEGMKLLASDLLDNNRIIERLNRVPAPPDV

With `CN1CCN(C(=O)c2ccc3cc(CCNc4ccnc5ccc(C#N)cc45)ccc3c2)CC1` [compound 6148, 4-((2-(6-(4-methylpiperazine-1-carbonyl)naphthalen-2-yl)ethyl)amino)quinoline-6-carbonitrile] the remaining binding at 2 µM [1] was 91%, the remaining binding at 2 µM [2] was 67% and the remaining binding at 2 µM [3] was 57%. For the same molecule, the remaining binding at 2 µM [4] was 13%, the remaining binding at 2 µM [5] was 95% and the remaining binding at 2 µM [6] was 80%. For the same molecule, the remaining binding at 2 µM [7] was 63%, the remaining binding at 2 µM [8] was 74% and the remaining binding at 2 µM [9] was 81%. For the same molecule, the remaining binding at 2 µM [10] was 84%, the remaining binding at 2 µM [11] was 99% and the remaining binding at 2 µM [12] was 89%. For the same molecule, the remaining binding at 2 µM [13] was 98%, the remaining binding at 2 µM [14] was 97% and the remaining binding at 2 µM [15] was 98%. It also gave a remaining binding at 2 µM [16] of 91%, a remaining binding at 2 µM [17] of 92% and a remaining binding at 2 µM [18] of 93%. For the same molecule, the remaining binding at 2 µM [19] was 96%, the remaining binding at 2 µM [20] was 60% and the remaining binding at 2 µM [21] was 1.3%. For the same molecule, the “Potency in inhibition of PSA production relative to Senexin B” value [22] was ~3 fold, the remaining binding at 2 µM [23] was 75% and the remaining binding at 2 µM [24] was 86%. It also gave a remaining binding at 2 µM [25] of 88%, a remaining binding at 2 µM [26] of 93% and a remaining binding at 2 µM [27] of 79%. It also gave a remaining binding at 2 µM [28] of 57%, a remaining binding at 2 µM [29] of 100% and a remaining binding at 2 µM [30] of 87%. For the same molecule, the remaining binding at 2 µM [31] was 89%, the remaining binding at 2 µM [32] was 60% and the remaining binding at 2 µM [33] was 100%. The remaining binding at 2 µM [34] was 68%, the remaining binding at 2 µM [35] was 87% and the remaining binding at 2 µM [36] was 82%. For the same molecule, the remaining binding at 2 µM [37] was 68% and the remaining binding at 2 µM [38] was 85%.
